Reference: US20090238808A1, “Process for the identification of novel enzyme interacting compounds” (priority 2005, published 2009)

Tests used:
Assay in all cases: In-lysate competition binding with kinobeads, Jurkat lysate, iTRAQ MS, relative intensity of identified proteins (Table 22)
Settings in all cases: DMSO control = 1.0
[1] = biological target: T1, proteins captured on kinobeads from Jurkat cell lysate (Homo sapiens, UniProt P50613)
T1 construct: endogenous in cells; host or cells: Jurkat clone E6-1 lysate
Description: (§1) This example illustrates competition binding in cell lysates (see particularly the third aspect of the invention). A test compound, Bisindolylmaleimide VIII (Bis VIII, a well known kinase inhibitor; Davies et al., 2000. Specificity and mechanism of action of some commonly used protein kinase inhibitors. Biochemical Journal 351 (Pt 1): 95-105) was added to a cell lysate thereby allowing the test compound to bind to the target proteins in the lysate. Then the lysate was contacted with the kinobeads affinity matrix to capture remaining free target proteins. The proteins bound to the kinobeads matrix were then eluted with detergent-containing buffer, separated on a SDS-polyacryamide gel and analyzed by immunodetection (Western blots) or mass spectrometry detection.
(§2) For the quantitative detection of proteins by mass spectrometry proteins were eluted from the affinity matrix and subsequently separated by SDS-Polyacrylamide gel elecrophoresis. Suitable gel areas were cut out and subjected to in-gel proteolytic digestion with trypsin.
(§3) Four tryptic digest samples (corresponding to three different Bis VIII concentrations in the lysate and one DMSO control) were labeled with ITRAQ reagents and the combined samples were analyzed in a single LC-MS/MS mass spectrometry analysis followed by peak quantification in the MS/MS spectrum (Ross et al., 2004. Multiplexed protein quantitation in Saccharomyces cerevisiae using amine-reactive isobaric tagging reagents. Mol. Cell. Proteomics 3(12): 1154-1169). […] Binding curves for individual kinases are shown (FIG. 5). The relative intensity 50 (RI50) values representing the affinity of kinase-compound pairs are similar to IC50 values reported by kinase enzyme assays (Davies et al., 2000. Specificity and mechanism of action of some commonly used protein kinase inhibitors. Biochemical Journal 351 (Pt 1): 95-105).
(§4) Aliqots of Jurkat lysate (10 mg protein) were incubated with different Bis VIII concentrations for one hour at 4° C. (0.025 μM, 0.074 μM, 0.22 μM, 0.67 μM, 2.0 μM and 6.0 μM final concentration of Bis VIII). To this end Bis VIII solutions were prepared in 100% DMSO as solvent that corresponded to 200 fold desired final Bis VIII concentration (Bis VIII from Alexis Biochemicals cat. number ALX 270-056). Five μl of these solutions were added to 1 ml of lysate resulting in the indicated final concentrations. For a control experiment 5 μl of DMSO without Bis VIII were used.
(§5) To each preincubated lysate sample 40 μl of kinobeads (see example 1) were added and incubated for one hour at 4° C. During the incubation the tubes were rotated on an end-over-end shaker (Roto Shake Genie, Scientific Industries Inc.). Beads were collected by centrifugation, transfered to Mobicol-columns (MoBiTech 10055) and washed with 10 ml 1×DP buffer containing 0.4% NP40 detergent, followed by a wash with 5 ml 1×DP buffer with 0.2% NP40. To elute the bound proteins, 100 μl 2×SDS sample buffer was added, the column was heated for 30 minutes at 50° C. and the eluate was transferred to a microfuge tube by centrifugation. Proteins were then separated by SDS-Polyacrylamide electrophoresis (SDS-PAGE). The composition and preparation of buffers is described in example 2.
(§6) The peptide extracts of samples treated with different concentrations of the test compound (0.074 μM, 0.22 μM and 0.67 μM Bis VIII) and the solvent control (0.5% DMSO) were treated with different isomers of the isobaric tagging reagent (iTRAQ Reagents Multiplex Kit, part number 4352135, Applied Biosystems, Foster City, Calif., USA). The iTRAQ reagents are a set of multiplexed, amine-specific, stable isotope reagents that can label all peptides in up to four different biological samples enabling simultaneous identification and quantitation of peptides. The iTRAQ reagents were used according to instructions provided by the manufacturer. […]

[2] = biological target: T2, proteins captured on kinobeads from Jurkat cell lysate (Homo sapiens, UniProt P06239)
T2 construct: endogenous in cells; host or cells: Jurkat clone E6-1 lysate
Description: as §1, §2, §3, §4, §5, §6

[3] = biological target: T3, proteins captured on kinobeads from Jurkat cell lysate (Homo sapiens, UniProt P42684)
T3 construct: endogenous in cells; host or cells: Jurkat clone E6-1 lysate
Description: as §1, §2, §3, §4, §5, §6

[4] = biological target: T4, proteins captured on kinobeads from Jurkat cell lysate (Homo sapiens, UniProt O14965)
T4 construct: endogenous in cells; host or cells: Jurkat clone E6-1 lysate
Description: as §1, §2, §3, §4, §5, §6

[5] = biological target: T5, proteins captured on kinobeads from Jurkat cell lysate (Homo sapiens, UniProt Q6PHR2)
T5 construct: endogenous in cells; host or cells: Jurkat clone E6-1 lysate
Description: as §1, §2, §3, §4, §5, §6

[6] = biological target: T6, proteins captured on kinobeads from Jurkat cell lysate (Homo sapiens, UniProt O14976)
T6 construct: endogenous in cells; host or cells: Jurkat clone E6-1 lysate
Description: as §1, §2, §3, §4, §5, §6

[7] = biological target: T7, proteins captured on kinobeads from Jurkat cell lysate (Homo sapiens, UniProt Q9UHD2)
T7 construct: endogenous in cells; host or cells: Jurkat clone E6-1 lysate
Description: as §1, §2, §3, §4, §5, §6

[8] = biological target: T8, proteins captured on kinobeads from Jurkat cell lysate (Homo sapiens, UniProt Q13555)
T8 construct: endogenous in cells; host or cells: Jurkat clone E6-1 lysate
Description: as §1, §2, §3, §4, §5, §6

[9] = biological target: T9, proteins captured on kinobeads from Jurkat cell lysate (Homo sapiens, UniProt Q13557)
T9 construct: endogenous in cells; host or cells: Jurkat clone E6-1 lysate
Description: as §1, §2, §3, §4, §5, §6

[10] = biological target: T10, proteins captured on kinobeads from Jurkat cell lysate (Homo sapiens, UniProt Q14289)
T10 construct: endogenous in cells; host or cells: Jurkat clone E6-1 lysate
Description: as §1, §2, §3, §4, §5, §6

[11] = biological target: T11, proteins captured on kinobeads from Jurkat cell lysate (Homo sapiens, UniProt Q08881)
T11 construct: endogenous in cells; host or cells: Jurkat clone E6-1 lysate
Description: as §1, §2, §3, §4, §5, §6

[12] = biological target: T12, proteins captured on kinobeads from Jurkat cell lysate (Homo sapiens, UniProt P45984)
T12 construct: endogenous in cells; host or cells: Jurkat clone E6-1 lysate
Description: as §1, §2, §3, §4, §5, §6

[13] = biological target: T13, proteins captured on kinobeads from Jurkat cell lysate (Homo sapiens, UniProt Q16539)
T13 construct: endogenous in cells; host or cells: Jurkat clone E6-1 lysate
Description: as §1, §2, §3, §4, §5, §6

[14] = biological target: T14, proteins captured on kinobeads from Jurkat cell lysate (Homo sapiens, UniProt P45983)
T14 construct: endogenous in cells; host or cells: Jurkat clone E6-1 lysate
Description: as §1, §2, §3, §4, §5, §6

[15] = tested on: proteins captured on kinobeads from Jurkat cell lysate; parameters: species or system human
Description: as §1, §2, §3, §4, §5, §6

T7 sequence (Q9UHD2 whole entry): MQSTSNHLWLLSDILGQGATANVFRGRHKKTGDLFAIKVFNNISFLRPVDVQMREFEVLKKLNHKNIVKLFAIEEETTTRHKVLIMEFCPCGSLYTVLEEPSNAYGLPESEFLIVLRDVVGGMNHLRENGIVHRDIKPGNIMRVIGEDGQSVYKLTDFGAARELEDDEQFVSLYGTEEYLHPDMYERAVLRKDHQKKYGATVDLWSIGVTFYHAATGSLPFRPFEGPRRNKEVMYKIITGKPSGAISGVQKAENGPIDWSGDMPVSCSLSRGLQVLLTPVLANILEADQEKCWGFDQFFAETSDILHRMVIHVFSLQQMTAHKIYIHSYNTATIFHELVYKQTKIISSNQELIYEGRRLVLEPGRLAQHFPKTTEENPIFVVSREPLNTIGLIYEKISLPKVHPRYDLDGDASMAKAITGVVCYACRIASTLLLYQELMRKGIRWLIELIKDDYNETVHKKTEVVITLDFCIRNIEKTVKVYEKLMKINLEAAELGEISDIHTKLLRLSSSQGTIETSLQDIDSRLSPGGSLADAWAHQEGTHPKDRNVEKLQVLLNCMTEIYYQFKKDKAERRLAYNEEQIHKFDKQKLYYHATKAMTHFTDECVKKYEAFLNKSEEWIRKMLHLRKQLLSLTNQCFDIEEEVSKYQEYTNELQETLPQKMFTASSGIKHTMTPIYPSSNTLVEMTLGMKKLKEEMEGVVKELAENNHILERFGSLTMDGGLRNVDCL
T2 sequence (P06239 whole entry): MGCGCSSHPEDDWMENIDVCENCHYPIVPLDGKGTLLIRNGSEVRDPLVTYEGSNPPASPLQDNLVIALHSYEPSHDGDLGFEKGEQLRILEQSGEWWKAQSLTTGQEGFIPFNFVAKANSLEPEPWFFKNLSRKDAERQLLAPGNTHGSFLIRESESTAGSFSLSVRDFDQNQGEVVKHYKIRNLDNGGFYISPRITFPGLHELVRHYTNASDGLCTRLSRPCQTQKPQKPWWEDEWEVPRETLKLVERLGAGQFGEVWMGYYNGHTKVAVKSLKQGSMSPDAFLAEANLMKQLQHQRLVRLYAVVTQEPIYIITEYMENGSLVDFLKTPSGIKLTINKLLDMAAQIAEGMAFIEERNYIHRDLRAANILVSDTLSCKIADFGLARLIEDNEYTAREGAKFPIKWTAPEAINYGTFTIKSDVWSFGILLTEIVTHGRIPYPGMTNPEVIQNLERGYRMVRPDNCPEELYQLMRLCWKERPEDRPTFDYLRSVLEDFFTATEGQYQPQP
T10 sequence (Q14289 whole entry): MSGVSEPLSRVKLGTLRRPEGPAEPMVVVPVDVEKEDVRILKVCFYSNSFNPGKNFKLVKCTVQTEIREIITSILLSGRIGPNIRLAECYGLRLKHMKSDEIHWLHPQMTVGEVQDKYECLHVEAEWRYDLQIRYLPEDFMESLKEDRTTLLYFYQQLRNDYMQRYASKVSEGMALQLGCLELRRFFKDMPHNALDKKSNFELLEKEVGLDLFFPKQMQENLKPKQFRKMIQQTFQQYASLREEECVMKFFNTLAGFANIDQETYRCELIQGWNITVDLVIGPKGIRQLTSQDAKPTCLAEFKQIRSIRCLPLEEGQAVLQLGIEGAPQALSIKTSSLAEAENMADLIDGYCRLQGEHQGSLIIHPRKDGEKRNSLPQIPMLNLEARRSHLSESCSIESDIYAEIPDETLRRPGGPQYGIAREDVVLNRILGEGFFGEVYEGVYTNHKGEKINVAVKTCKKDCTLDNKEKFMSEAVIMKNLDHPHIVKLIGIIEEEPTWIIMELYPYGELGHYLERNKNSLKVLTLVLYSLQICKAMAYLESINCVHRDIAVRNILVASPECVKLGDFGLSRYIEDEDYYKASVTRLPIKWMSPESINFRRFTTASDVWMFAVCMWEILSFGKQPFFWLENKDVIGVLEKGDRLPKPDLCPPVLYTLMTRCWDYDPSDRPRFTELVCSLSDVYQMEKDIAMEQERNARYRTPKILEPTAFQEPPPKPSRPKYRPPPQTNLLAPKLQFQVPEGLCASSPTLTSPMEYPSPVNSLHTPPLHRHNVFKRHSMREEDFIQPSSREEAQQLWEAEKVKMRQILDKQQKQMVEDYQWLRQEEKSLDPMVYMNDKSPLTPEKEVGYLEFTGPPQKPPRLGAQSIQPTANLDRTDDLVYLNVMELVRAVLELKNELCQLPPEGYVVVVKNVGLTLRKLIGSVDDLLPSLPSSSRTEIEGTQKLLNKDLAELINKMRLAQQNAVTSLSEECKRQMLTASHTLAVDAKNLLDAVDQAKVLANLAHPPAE
T8 sequence (Q13555 whole entry): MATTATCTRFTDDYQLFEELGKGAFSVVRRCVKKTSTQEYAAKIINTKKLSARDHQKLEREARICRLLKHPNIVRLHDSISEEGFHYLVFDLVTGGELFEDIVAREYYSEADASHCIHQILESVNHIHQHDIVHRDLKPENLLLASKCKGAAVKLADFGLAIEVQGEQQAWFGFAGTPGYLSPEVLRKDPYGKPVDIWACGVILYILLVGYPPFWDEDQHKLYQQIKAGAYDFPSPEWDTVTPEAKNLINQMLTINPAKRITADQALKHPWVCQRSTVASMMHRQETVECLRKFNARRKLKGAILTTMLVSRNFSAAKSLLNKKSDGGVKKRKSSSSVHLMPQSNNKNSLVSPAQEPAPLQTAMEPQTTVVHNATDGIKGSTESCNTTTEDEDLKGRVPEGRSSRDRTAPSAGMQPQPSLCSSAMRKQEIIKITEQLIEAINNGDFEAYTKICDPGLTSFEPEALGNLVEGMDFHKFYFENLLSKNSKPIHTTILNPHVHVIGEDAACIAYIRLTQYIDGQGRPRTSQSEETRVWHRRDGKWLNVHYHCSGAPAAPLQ
T14 sequence (P45983 whole entry): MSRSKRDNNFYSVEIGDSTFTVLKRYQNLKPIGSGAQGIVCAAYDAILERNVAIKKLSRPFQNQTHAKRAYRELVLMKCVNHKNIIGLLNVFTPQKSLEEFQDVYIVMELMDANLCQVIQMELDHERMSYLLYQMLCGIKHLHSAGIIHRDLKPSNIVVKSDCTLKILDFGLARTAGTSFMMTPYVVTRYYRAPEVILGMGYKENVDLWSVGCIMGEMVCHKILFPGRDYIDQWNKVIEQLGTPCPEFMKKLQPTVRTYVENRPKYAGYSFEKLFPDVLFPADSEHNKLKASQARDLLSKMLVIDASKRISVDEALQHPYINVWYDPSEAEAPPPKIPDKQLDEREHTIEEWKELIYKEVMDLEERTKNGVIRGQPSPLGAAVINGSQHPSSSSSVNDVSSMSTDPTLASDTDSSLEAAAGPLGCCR
T3 sequence (P42684 whole entry): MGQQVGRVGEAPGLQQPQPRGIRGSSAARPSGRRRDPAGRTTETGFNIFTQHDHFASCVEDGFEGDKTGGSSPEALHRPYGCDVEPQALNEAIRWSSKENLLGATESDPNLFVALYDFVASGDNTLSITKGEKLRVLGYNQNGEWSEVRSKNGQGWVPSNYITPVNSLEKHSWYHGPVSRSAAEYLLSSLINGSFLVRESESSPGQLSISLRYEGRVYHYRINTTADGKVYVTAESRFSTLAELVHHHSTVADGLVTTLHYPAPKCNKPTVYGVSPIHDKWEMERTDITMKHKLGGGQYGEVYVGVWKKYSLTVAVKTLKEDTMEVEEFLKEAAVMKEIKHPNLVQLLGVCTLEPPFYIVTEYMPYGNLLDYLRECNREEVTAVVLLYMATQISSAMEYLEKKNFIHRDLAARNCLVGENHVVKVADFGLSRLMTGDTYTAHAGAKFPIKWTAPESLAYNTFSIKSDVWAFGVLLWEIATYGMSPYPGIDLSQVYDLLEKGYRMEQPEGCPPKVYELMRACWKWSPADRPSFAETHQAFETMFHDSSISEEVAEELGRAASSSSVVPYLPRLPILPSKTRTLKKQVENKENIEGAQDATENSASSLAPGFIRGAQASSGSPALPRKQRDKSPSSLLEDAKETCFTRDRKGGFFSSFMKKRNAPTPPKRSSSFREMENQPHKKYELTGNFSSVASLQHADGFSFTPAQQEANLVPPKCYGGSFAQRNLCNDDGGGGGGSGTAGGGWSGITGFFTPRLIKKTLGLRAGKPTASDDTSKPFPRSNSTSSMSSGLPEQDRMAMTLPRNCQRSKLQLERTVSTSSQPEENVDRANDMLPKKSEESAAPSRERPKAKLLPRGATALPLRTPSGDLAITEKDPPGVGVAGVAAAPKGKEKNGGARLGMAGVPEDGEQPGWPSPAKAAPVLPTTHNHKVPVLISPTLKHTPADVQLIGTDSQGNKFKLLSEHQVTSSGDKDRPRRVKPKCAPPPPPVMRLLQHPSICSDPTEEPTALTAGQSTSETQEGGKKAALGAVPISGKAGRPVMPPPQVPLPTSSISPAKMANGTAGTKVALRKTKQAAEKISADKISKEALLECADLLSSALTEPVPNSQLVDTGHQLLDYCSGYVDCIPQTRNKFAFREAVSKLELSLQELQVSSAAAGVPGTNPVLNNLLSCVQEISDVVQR
T13 sequence (Q16539 whole entry): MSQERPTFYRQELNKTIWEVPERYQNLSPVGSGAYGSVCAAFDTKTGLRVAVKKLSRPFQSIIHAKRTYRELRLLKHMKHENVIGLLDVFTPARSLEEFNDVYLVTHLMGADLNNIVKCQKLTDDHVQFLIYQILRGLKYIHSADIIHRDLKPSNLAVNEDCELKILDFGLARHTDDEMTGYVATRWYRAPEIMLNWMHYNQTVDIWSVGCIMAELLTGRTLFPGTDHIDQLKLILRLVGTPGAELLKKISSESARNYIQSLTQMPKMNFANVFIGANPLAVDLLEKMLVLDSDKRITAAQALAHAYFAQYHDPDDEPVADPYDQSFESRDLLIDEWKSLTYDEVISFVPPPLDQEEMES

With Cn1cc(C2=C(c3cn(CCCN)c4ccccc34)C(=O)NC2=O)c2ccccc21 [Bis VIII, Bisindolylmaleimide VIII] the “Relative Intensity, CDK7” value ([1]; 0.074 uM in lysate) was 1.03, the “Relative Intensity, CDK7” value ([1]; 0.67 uM in lysate) was 0.89 and the “Relative Intensity, LCK” value ([2]; 0.074 uM in lysate) was 0.87. For the same compound, the “Relative Intensity, LCK” value ([2]; 0.67 uM in lysate) was 0.94, the “Relative Intensity, ARG (ABL2)” value ([3]; 0.074 uM in lysate) was 0.96 and the “Relative Intensity, ARG (ABL2)” value ([3]; 0.67 uM in lysate) was 0.91. The “Relative Intensity, AurA (STK6)” value ([4]; 0.074 uM in lysate) was 0.90, the “Relative Intensity, AurA (STK6)” value ([4]; 0.67 uM in lysate) was 0.87 and the “Relative Intensity, ULK3” value ([5]; 0.074 uM in lysate) was 0.95. The “Relative Intensity, ULK3” value ([5]; 0.67 uM in lysate) was 1.15, the “Relative Intensity, GAK” value ([6]; 0.074 uM in lysate) was 0.92 and the “Relative Intensity, GAK” value ([6]; 0.67 uM in lysate) was 0.97. For the same compound, the “Relative Intensity, TBK1” value ([7]; 0.074 uM in lysate) was 1.05, the “Relative Intensity, TBK1” value ([7]; 0.67 uM in lysate) was 1.14 and the “Relative Intensity, CaMK2g” value ([8]; 0.074 uM in lysate) was 0.83. For the same compound, the “Relative Intensity, CaMK2g” value ([8]; 0.67 uM in lysate) was 0.88, the “Relative Intensity, CaMK2d” value ([9]; 0.074 uM in lysate) was 0.91 and the “Relative Intensity, CaMK2d” value ([9]; 0.67 uM in lysate) was 0.88. For the same compound, the “Relative Intensity, PYK2 (PTK2B)” value ([10]; 0.074 uM in lysate) was 0.82, the “Relative Intensity, PYK2 (PTK2B)” value ([10]; 0.67 uM in lysate) was 0.74 and the “Relative Intensity, ITK” value ([11]; 0.074 uM in lysate) was 0.80. The “Relative Intensity, ITK” value ([11]; 0.67 uM in lysate) was 0.91, the “Relative Intensity, JNK2 (MAPK9)” value ([12]; 0.074 uM in lysate) was 0.97 and the “Relative Intensity, JNK2 (MAPK9)” value ([12]; 0.67 uM in lysate) was 1.04. The “Relative Intensity, p38a (MAPK14)” value ([13]; 0.074 uM in lysate) was 0.82, the “Relative Intensity, p38a (MAPK14)” value ([13]; 0.67 uM in lysate) was 0.93 and the “Relative Intensity, JNK1 (MAPK8)” value ([14]; 0.074 uM in lysate) was 0.91. The “Relative Intensity, JNK1 (MAPK8)” value ([14]; 0.67 uM in lysate) was 0.83, the “Relative Intensity, Abl1” value ([15]; 0.074 uM in lysate) was 0.81 and the “Relative Intensity, Abl1” value ([15]; 0.67 uM in lysate) was 1.03.
